Experimental data as given in US20220280663A1, “[…] TARGETED […] ACTIVE SUBSTANCE OR LABEL […] SYSTEM” (CELLIS AG, priority 2016, published 2022).

Key:
cancer cells = test: Transfer of iron binding proteins from loaded leukocytes to co-cultured cancer cells; type: cell-based; conditions: for transport to cancer cells from granulocytes: loaded granulocytes (FIG. 15); for transport to cancer cells from lymphocytes: loaded lymphocytes (FIG. 16); for transport to cancer cells from macrophages: loaded macrophages, mouse mammary, colon, canine mammary, human breast, pancreatic, bladder cancer cells; for transport to cancer cells from monocytes: loaded monocytes (FIG. 14)
Description: However, in case of cancer cells the ratio of both cell types is crucial. The more macrophages the better and faster the transport is. The most efficient transfer to the cancer cells was observed when ratio of macrophages to cancer cells was 1:1 or more.
This transfer of compounds conjugated with anticancer drugs made the effect inducing apoptosis in cancer cells (FIG. 6, 13).
However, the ratio of both cell types is important. The more monocytes the better and faster the transport is. The most efficient transfer to the cancer cells was observed when ratio of monocytes to cancer cells was 1:1 or more.
However, the ratio of both cell types is crucial. The more granulocytes the better and faster the transport is. The most efficient transfer to the cancer cells was observed when ratio of granulocytes to cancer cells was 1:1 or more.
However, the ratio of both cell types is crucial. The more lymphocytes the better and faster the transport is. The most efficient transfer to the cancer cells was observed when ratio of lymphocytes to cancer cells was 1:1 or more.

CD45^+ leukocyte cell = test: Uptake and storage of iron binding proteins by CD45+ leukocyte cells; type: cell-based; conditions: incubation 1-4 hours in protein solution (ferritin 0.8 mg/ml; haemoglobin, transferrin 0.1 mg/ml), standard culture conditions
Method: (§1) Obtained cells are incubated in ferritin solution for a time and at the concentration sufficient to ensure proper ratio of ferritin/cell for their full load and also to ensure proper drug content to obtain therapeutic effect or contrast for proper imaging. The time and concentration may vary depending on the number of molecules encapsulated/adsorbed into the ferritin cage, status of cell activation, condition and number of their intended administration.
For example, to ensure proper load with ferritins, cells are incubated for 1-4 hours in ferritin solution 0.8 mg/ml in standard culture conditions. The frame of ferritin concentration may vary at least between 0.01 and 4 mg/ml as well as incubation time (5 min-6 hours or more). Adjusting time and concentration of ferritin load to cells, the influence of ferritin and treatment conditions on cell viability should be minded.
as §1, with “haemoglobin” for “ferritin”, “haemoglobin/cell” for “ferritin/cell”, “linked with” for “encapsulated/adsorbed into”, “haemoglobin molecule,” for “ferritin cage,”, “administration. […]” for “administration.”

haemoglobins: human haemoglobin prepared from fresh red cells (SEQ ID NO: 18 or 22)
transport to cancer cells from granulocytes (cancer cells): very easily transport | transport to cancer cells from lymphocytes (cancer cells): very easily transport | transport to cancer cells from macrophages (cancer cells): very easily transport | transport to cancer cells from monocytes (cancer cells): very easily transport | uptake of iron binding protein by cells (CD45^+ leukocyte cell): very easily uptake

transferrins: human holo-transferrin purified from serum (SEQ ID NO: 28)
transport to cancer cells from granulocytes (cancer cells): very easily transport | transport to cancer cells from lymphocytes (cancer cells): very easily transport | transport to cancer cells from macrophages (cancer cells): very easily transport | transport to cancer cells from monocytes (cancer cells): very easily transport | uptake of iron binding protein by cells (CD45^+ leukocyte cell): very easily uptake
